# According to patent publication US9850257B2, “Tricyclic heterocycles as BET protein inhibitors” (Incyte Corporation, priority 2013, dated 2017):
# pIC50: −log10 of the molar value. Counter-ions that a name gives are not always drawn.
# What was measured:
# BRD4-BD1 = BRD4-BD1 (Homo sapiens (Human), UniProt O60885); assay: BRD4 AlphaScreen assay (BD1); type: binding; conditions: biotin-labeled tetra-acetylated histone H4 peptide, 3.8 nM BRD4-BD1, read-out: BRD4 BD-1 enzyme IC50
# Procedure: (§1) BRD4-BD1 and BRD4-BD2 assays were conducted in white 384-well polystyrene plate in a final volume of 20 μL for BD1 and 40 μL for BD2. Inhibitors were first serially diluted in DMSO and added to the plate wells before the addition of other reaction components. The final concentration of DMSO in the assay was 1.25% (BD1) and 0.83% (BD2). The assays were carried out at room temperature for 75 min. in the assay buffer (50 mM HEPES, pH 7.4, 100 mM NaCl, 0.05% CHAPS, 0.01% BSA), containing 50 nM Biotin-labeled tetra-acetylated histone H4 peptide (H4Ac4), 3.8 nM (BRD4-BD1, BPS Bioscience #31040) or 20 nM (BRD4-BD2, BPS Bioscience #31041). The reaction followed by the addition of 20 μL of assay buffer supplemented with Streptavidin donor beads (PerkinElmer 6760002) and GSH Acceptor beads (PerkinElmer-AL109C) at 4 jag/mL under reduced light. After plate sealing, the plate was incubated in the dark at room temperature for 75 min. before reading on a PHERAstar FS plate reader (BMG Labtech). IC50 determination was performed by fitting the curve of percent control activity versus the log of the inhibitor concentration using the GraphPad Prism 5.0 software.
# BRD4-BD2 = BRD4-BD2 (Homo sapiens (Human), UniProt O60885); assay: BRD4 AlphaScreen assay (BD2); type: binding; conditions: biotin-labeled tetra-acetylated histone H4 peptide, 20 nM BRD4-BD2, read-out: BRD4 BD-2 enzyme IC50
# Procedure: as §1
# [1] = test system: KMS.12.BM cell line (human myeloma); assay: KMS.12.BM cell viability assay; type: cell-based; conditions: 72 h, KMS.12.BM cells, 3 days, Cell Titer-GLO ATP quantitation, read-out: KMS cellular IC50
# Procedure: KMS.12.BM Cell Viability Assay
# KMS.12.BM cell line (human myeloma) was purchased from JCRB (Osaka, Japan) and maintained in RPMI with 10% FBS culture medium. To measure the cytotoxic activity of the compounds through ATP quantitation, the KMS. 12.BM cells are plated in the RPMI culture medium at 5000 cells/well/per 100 μL into a 96-well polystyrene clear black tissue culture plate (Greiner-bio-one through VWR, NJ), in the presence or absence of a concentration range of test compounds. After 3 days, […] Cell Titer-GLO Luminescent (Promega, Madison, Wis.) cell culture agent is added to each well for 10 minutes at room temperature to stabilize the luminescent signal. This determines the number of viable cells in culture based on quantitation of the ATP present, which signals the presence of metabolically active cells. Luminescence is measured with the Top Count 384 (Packard Bioscience through Perkin Elmer, Boston, Mass.). Compound inhibition is determined relative to cells cultured with no drug and the IC50 reported as the compound concentration required for 50% cell death.
Structure (SMILES),pIC50 (BRD4-BD1),pIC50 (BRD4-BD2),pIC50 [1]
"Cc1noc(C)c1-c1ccc2c(=O)[nH]n3c2c1OCC3c1ccccc1 (centres unmarked) [Example 1, 9-(3,5-Dimethylisoxazol-4-yl)-3-phenyl-2,3-dihydro[1,4]oxazino[2,3,4-hi]indazol-6(5H)-one]",≥ 6.70,≥ 6.70,≥ 6.00
"Cc1noc(C)c1-c1ccc2c(=O)n(C)n3c2c1OCC3c1ccccc1 (centres unmarked) [Example 2, 9-(3,5-Dimethylisoxazol-4-yl)-5-methyl-3-phenyl-2,3-dihydro[1,4]oxazino[2,3,4-hi]indazol-6(5H)-one]",≥ 6.70,≥ 6.70,≥ 6.00
"COc1nn2c3c(c(-c4c(C)noc4C)ccc13)OCC2c1ccccc1 (centres unmarked) [Example 3, 9-(3,5-Dimethylisoxazol-4-yl)-6-methoxy-3-phenyl-2,3-dihydro[1,4]oxazino[2,3,4-hi]indazole]",≥ 6.70,≥ 6.70,≥ 6.00
"Cc1noc(C)c1-c1ccc2cnn3c2c1OCC3c1ccccc1 (centres unmarked) [Example 4, 9-(3,5-Dimethylisoxazol-4-yl)-3-phenyl-2,3-dihydro[1,4]oxazino[2,3,4-hi]indazole]",≥ 6.70,≥ 6.70,≥ 6.00
"Cc1noc(C)c1-c1ccc2c(=O)[nH]n3c2c1OCC3c1ccccn1 (centres unmarked) [Example 5, 9-(3,5-Dimethylisoxazol-4-yl)-3-pyridin-2-yl-2,3-dihydro[1,4]oxazino[2,3,4-hi]indazol-6(5H)-one]",6.00 to 6.70,≥ 6.70,≥ 6.00
"Cc1noc(C)c1-c1ccc2c(=O)n(C)n3c2c1OCC3c1ccccn1 (centres unmarked) [Example 6, 9-(3,5-Dimethylisoxazol-4-yl)-5-methyl-3-pyridin-2-yl-2,3-dihydro[1,4]oxazino[2,3,4-hi]indazol-6(5H)-one]",≥ 6.70,≥ 6.70,≥ 6.00
"COc1nn2c3c(c(-c4c(C)noc4C)ccc13)OCC2c1ccccn1 (centres unmarked) [Example 7, 9-(3,5-Dimethylisoxazol-4-yl)-6-methoxy-3-pyridin-2-yl-2,3-dihydro[1,4]oxazino[2,3,4-hi]indazole]",≥ 6.70,≥ 6.70,≥ 6.00
"Cc1noc(C)c1-c1ccc2cnn3c2c1OCC3c1ccccn1 (centres unmarked) [Example 8, 9-(3,5-Dimethylisoxazol-4-yl)-3-pyridin-2-yl-2,3-dihydro[1,4]oxazino[2,3,4-hi]indazole trifluoroacetate]",≥ 6.70,≥ 6.70,≥ 6.00
"Cc1noc(C)c1-c1cc(Br)c2cnn3c2c1OCC3c1ccccc1 (centres unmarked) [Example 9, 7-Bromo-9-(3,5-dimethylisoxazol-4-yl)-3-phenyl-2,3-dihydro[1,4]oxazino[2,3,4-hi]indazole]",6.00 to 6.70,≥ 6.70,5.00 to 6.00
"Cc1noc(C)c1-c1ccc2c(=O)[nH]n3c2c1OCC3c1cccnc1 (centres unmarked) [Example 10, 9-(3,5-Dimethylisoxazol-4-yl)-3-pyridin-3-yl-2,3-dihydro[1,4]oxazino[2,3,4-hi]indazol-6(5H)-one]",6.00 to 6.70,≥ 6.70,5.00 to 6.00
"Cc1noc(C)c1-c1ccc2c(=O)n(C)n3c2c1OCC3c1cccnc1 (centres unmarked) [Example 11, 9-(3,5-Dimethylisoxazol-4-yl)-5-methyl-3-pyridin-3-yl-2,3-dihydro[1,4]oxazino[2,3,4-hi]indazol-6(5H)-one]",≥ 6.70,≥ 6.70,≥ 6.00
"COc1nn2c3c(c(-c4c(C)noc4C)ccc13)OCC2c1cccnc1 (centres unmarked) [Example 12, 9-(3,5-Dimethylisoxazol-4-yl)-6-methoxy-3-pyridin-3-yl-2,3-dihydro[1,4]oxazino[2,3,4-hi]indazole]",≥ 6.70,≥ 6.70,≥ 6.00
"Cc1noc(C)c1-c1cc(F)c2nnn3c2c1OCC3c1cccnc1 (centres unmarked) [Example 13, 7-(3,5-Dimethylisoxazol-4-yl)-9-fluoro-4-pyridin-3-yl-4,5-dihydro[1,2,3]triazolo[1,5,4-de][1,4]benzoxazine trifluoroacetate]",< 6.00,6.00 to 6.70,–
